Source: ChEMBL document CHEMBL1127841, “Adenosine deaminase inhibitors: synthesis and structure-activity relationships of 2-hydroxy-3-nonyl derivatives of azoles” (J Med Chem, 1994)

Molecular target: T1, Adenosine deaminase (Bos taurus, UniProt P56658)
T1 sequence (P56658 whole entry): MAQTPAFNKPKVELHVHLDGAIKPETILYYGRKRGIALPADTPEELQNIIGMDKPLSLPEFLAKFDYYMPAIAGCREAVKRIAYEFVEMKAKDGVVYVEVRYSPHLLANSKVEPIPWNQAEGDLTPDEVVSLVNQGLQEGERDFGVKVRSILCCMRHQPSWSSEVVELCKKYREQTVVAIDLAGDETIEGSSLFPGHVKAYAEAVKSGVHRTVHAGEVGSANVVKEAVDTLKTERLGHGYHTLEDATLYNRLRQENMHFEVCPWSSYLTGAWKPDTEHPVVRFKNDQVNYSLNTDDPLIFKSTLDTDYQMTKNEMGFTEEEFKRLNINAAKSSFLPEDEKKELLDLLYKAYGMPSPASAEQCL
Assay: In vitro inhibition of adenosine deaminase isolated from calf intestine.

Compound	Ki [µM]
CCCCCCC(C(C)O)n1cnc2c(N)nccc21 (stereo not given)	0.16
CCCCCCC(C(C)O)n1cnc2c(N)ccnc21 (stereo not given)	0.01
CCCCCCC(C(C)O)n1nccn1 (stereo not given)	> 400
CCCCCCC(C(C)O)n1cnnc1 (stereo not given)	26
CCCCCCC(C(C)O)n1cccn1 (stereo not given)	> 1000
CCCCCCC(C(C)O)n1ccnc1 (stereo in doubt; 6e)	0.7
CCCCCCC(C(C)O)n1ccnc1 (stereo in doubt; 6t)	1.8
CCCCCCC(C(C)O)n1ccnn1 (stereo in doubt; 13e)	24
CCCCCCC(C(C)O)n1ccnn1 (stereo in doubt; 13t)	100
CCCCCCC(C(C)O)n1cncn1 (stereo in doubt; 18e)	0.3
CCCCCCC(C(C)O)n1cncn1 (stereo in doubt; 18t)	1
CCCCCCC(C(C)O)n1cnnn1 (stereo in doubt; 23e)	0.6
CCCCCCC(C(C)O)n1cnnn1 (stereo in doubt; 23t)	15
CCCCCCC(C(C)O)n1ncnn1 (stereo in doubt; 25e)	9.6
CCCCCCC(C(C)O)n1ncnn1 (stereo in doubt; 25t)	> 1000
